PubChem BioAssay (NCI)
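Five concentrations, 48 hours, 96-well plates. GI50: concentration for 50% inhibition of growth. At the TGI there is no net growth.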

Columns and labels:
Experiment in all cases: NCI anticancer screen, dose series, 48 h
[1] = test system: SK-OV-3 ovarian
[2] = test system: U251 CNS
[3] = test system: NCI-H522 lung
[4] = test system: OVCAR-4 ovarian
[5] = test system: HOP-92 NSCLC
[6] = test system: HCT-116 colon
[7] = test system: A549 NSCLC
[8] = test system: HL-60(TB) leukemia
[9] = test system: HCC-2998 colon
[10] = test system: KM12 colon

Structure (SMILES) | GI50 [1] | TGI [1] | GI50 [2] | TGI [2] | GI50 [3] | TGI [3] | GI50 [4] | TGI [4] | GI50 [5] | TGI [5] | GI50 [6] | TGI [6] | GI50 [7] | TGI [7] | GI50 [8] | TGI [8] | GI50 [9] | TGI [9] | GI50 [10] | TGI [10]
Cc1c(Nc2nccc3cc(CN4CC[C@@H](O)C4)cnc23)cccc1-c1cccc(-c2nc3cc(CN4CC[C@@H](C(=O)O)C4)cc(C#N)c3o2)c1C | > 100 µM | > 100 µM | 12.1 µM | 26.8 µM | 13.1 µM | 30.6 µM | 14.3 µM | > 100 µM | 2 µM | > 100 µM | 6.06 µM | 23.6 µM | 5.33 µM | 19.1 µM | 9.93 µM | 59.7 µM | 12.7 µM | 49 µM | 10.7 µM | 27.6 µM
FC(F)c1ncc(-c2ccc(C(F)(F)F)cc2)c(NC2CCCCCC2)n1 | > 10 µM | > 10 µM | > 10 µM | > 10 µM | > 10 µM | > 10 µM | > 10 µM | > 10 µM | > 10 µM | > 10 µM | > 10 µM | > 10 µM | > 10 µM | > 10 µM | > 10 µM | > 10 µM | > 10 µM | > 10 µM | > 10 µM | > 10 µM
OCCCCC#Cc1ccccc1C#Cc1cccnc1 | 57.3 µM | > 100 µM | 20.3 µM | 78.6 µM | 41.9 µM | > 100 µM | 26.5 µM | > 100 µM | 38.2 µM | > 100 µM | 45.9 µM | > 100 µM | 25.5 µM | 80.2 µM | 26.8 µM | 75.1 µM | 24.8 µM | 70.7 µM | 35.2 µM | > 100 µM
COc1ccc(Nc2ncnc3ccc(-c4cncc(NS(C)(=O)=O)c4)cc23)cc1Cl | 2.49 µM | 6.93 µM | 2.81 µM | 13.6 µM | 1.18 µM | 4.08 µM | 4.22 µM | 83.1 µM | 0.348 µM | 4.62 µM | 2.05 µM | 5.69 µM | 5.18 µM | 22.9 µM | 2.02 µM | 6.72 µM | 4.03 µM | 15.4 µM | 3.15 µM | 11.7 µM
CCN1CCN(c2cc(C(=O)Nc3cccc(Nc4ccc5c(OC)cccc5n4)c3)cc(C(F)(F)F)c2)CC1 | 4.6 µM | 11 µM | 1.36 µM | 4.94 µM | 1.01 µM | 4 µM | 1.57 µM | 9.32 µM | 1.26 µM | 4.66 µM | 0.872 µM | 3.54 µM | 1.05 µM | 5.28 µM | 3.82 µM | 11.4 µM | 0.72 µM | 2.01 µM | 1.71 µM | 6.35 µM
CCCCCCC(=O)C/C(CCC(=O)N(Cc1ccccc1)Cc1ccccc1)=N\NC(N)=O | – | > 100 µM | – | > 100 µM | – | > 100 µM | – | > 100 µM | – | > 100 µM | – | > 100 µM | – | > 100 µM | – | > 100 µM | – | > 100 µM | – | > 100 µM
CN(C)CCN1C(=O)c2cccc3c(/C=C/CN4C(=O)c5cccc6cccc(c56)C4=O)ccc(c23)C1=O | > 100 µM | > 100 µM | 46.5 µM | > 100 µM | > 100 µM | > 100 µM | > 100 µM | > 100 µM | 3.67 µM | 20.1 µM | 56.9 µM | > 100 µM | > 100 µM | > 100 µM | > 100 µM | > 100 µM | > 100 µM | > 100 µM | > 100 µM | > 100 µM
O=C1CC(C2(O)C(=O)Nc3ccc([N+](=O)[O-])cc32)c2ccccc21 (stereo not given) | – | > 100 µM | – | 37.8 µM | – | 26.3 µM | – | 88.1 µM | – | 85.4 µM | – | > 100 µM | – | > 100 µM | – | 45.3 µM | – | 44.9 µM | – | 98.6 µM
COC1=C(OC)C(=O)C(C/C=C(\C)CC/C=C(\C)CC/C=C(\C)CC/C=C(\C)CC/C=C(\C)CC/C=C(\C)CC/C=C(\C)CC/C=C(\C)CC/C=C(\C)CCC=C(C)C)=C(C)C1=O | > 100 µM | > 100 µM | > 100 µM | > 100 µM | > 100 µM | > 100 µM | > 100 µM | > 100 µM | > 100 µM | > 100 µM | > 100 µM | > 100 µM | > 100 µM | > 100 µM | > 100 µM | > 100 µM | > 100 µM | > 100 µM | > 100 µM | > 100 µM
O=C(c1ccccc1)c1nnn(Cc2ccccc2Cn2nnc(C(=O)c3ccccc3)c2C(=O)c2ccccc2)c1C(=O)c1ccccc1 | – | > 100 µM | – | > 100 µM | – | > 100 µM | – | > 100 µM | – | > 100 µM | – | > 100 µM | – | > 100 µM | – | > 100 µM | – | > 100 µM | – | > 100 µM
CC(C)N(C(=O)C12C3C4C5(C(=O)O)C(C1C35I)C42C(=O)O)C(C)C (stereo not given) | – | > 100 µM | – | > 100 µM | – | > 100 µM | – | > 100 µM | – | > 100 µM | – | > 100 µM | – | > 100 µM | – | > 100 µM | – | > 100 µM | – | > 100 µM
Fc1ccc2c(c1)C1=C(CCC2)C(c2ccc(Cl)cc2)NC(=S)N1 (stereo not given) | > 100 µM | > 100 µM | 54.7 µM | > 100 µM | 13.1 µM | 94 µM | 44.8 µM | > 100 µM | 16.7 µM | 73.9 µM | 26.1 µM | > 100 µM | 20.7 µM | > 100 µM | 7.51 µM | > 100 µM | 43.2 µM | > 100 µM | 32.3 µM | > 100 µM
